Data: ChEMBL document CHEMBL4422618, “Translational impact of novel widely pharmacological characterized mofezolac-derived COX-1 inhibitors combined with bortezomib on human multiple myeloma cell lines viability” (Eur J Med Chem, 2019)
Calls of active or inactive are those of the source. The calls are words filed in the database; no cut-off is given here.

How the values were obtained:
Plasma [1] = test: Anticoagulant activity in human platelet poor plasma assessed as activated partial thromboplastin time at 100 uM incubated for 15 mins at room temperature and subsequent incubation for 2 mins at 37 degreeC followed by cephalin addition and measured after 2 mins for every secs in presence of CaCl2; type: functional
[2] = Mutagenicity in Salmonella typhimurium TA98 at 500 uM by Ames test; type: toxicity; conditions: salmonella enterica subsp. enterica serovar typhimurium
NCI-H929 [3] = test: Induction of apoptosis in human NCI-H929 cells assessed as viable cells at 1.7 uM after 48 hrs in presence of bortezomib by Annexin-V/propidium iodide staining based flow cytometric method (reference value: 82.6%); type: functional; conditions: NCI-H929, 48 h, read-out: Activity
[4] = Mutagenicity in Salmonella typhimurium TA100 at 500 uM by Ames test; type: toxicity; conditions: salmonella enterica subsp. enterica serovar typhimurium
NCI-H929 [5] = test: Induction of apoptosis in human NCI-H929 cells assessed as late apoptotic cells at 1.7 uM after 48 hrs in presence of bortezomib by Annexin-V/propidium iodide staining based flow cytometric method (reference value: 0.23%); type: functional
RPMI-8226 [6] = test: Cell cycle arrest in human RPMI8226 cells assessed as reduction in accumulation at G2/M phase at 1.7 uM in presence of bortezomib after 48 hrs by propidium iodide/RNase staining based flow cytometric method relative to bortezomib; type: functional
RPMI-8226 [7] = test: Induction of apoptosis in human RPMI8226 cells assessed as viable cells at 1.7 uM after 48 hrs in presence of bortezomib by Annexin-V/propidium iodide staining based flow cytometric method (reference value: 98.7%); type: functional; conditions: RPMI-8226, 48 h, read-out: Activity
NCI-H929 [8] = test: Induction of apoptosis in human NCI-H929 cells assessed as late apoptotic cells at 1.7 uM after 48 hrs by Annexin-V/propidium iodide staining based flow cytometric method (reference value: 0.23%); type: functional
NCI-H929 [9] = test: Potentiation of bortezomib-induced cytotoxicity against human NCI-H929 cells assessed as reduction in cell viability at […] after 48 hrs in presence of bortezomib by CCK8 assay; type: functional, cell-based
Platelet = test: Antiplatelet activity in human platelet rich plasma assessed as inhibition of arachidonic acid-induced platelet aggregation preincubated for 2 mins followed by arachidonic acid addition by turbidimetric method; type: functional, cell-based
RPMI-8226 [10] = test: Cell cycle arrest in human RPMI8226 cells assessed as accumulation at S phase at 1.7 uM in presence of bortezomib after 48 hrs by propidium iodide/RNase staining based flow cytometric method relative to bortezomib; type: functional
NCI-H929 [11] = test: Induction of apoptosis in human NCI-H929 cells assessed as early apoptotic cells at 1.7 uM after 48 hrs in presence of bortezomib by Annexin-V/propidium iodide staining based flow cytometric method (reference value: 17.1%); type: functional
RPMI-8226 [12] = test: Induction of apoptosis in human RPMI8226 cells assessed as late apoptotic cells at 1.7 uM after 48 hrs in presence of bortezomib by Annexin-V/propidium iodide staining based flow cytometric method (reference value: 0.21%); type: functional
[13] = Genotoxicity in Escherichia coli PQ37 at 500 uM after overnight incubation by SOS chromotest; type: toxicity
[14] = Genotoxicity in Escherichia coli PQ35 at 500 uM after overnight incubation by SOS chromotest; type: toxicity
RPMI-8226 [15] = test: Induction of apoptosis in human RPMI8226 cells assessed as necrotic cells at 1.7 uM after 48 hrs in presence of bortezomib by Annexin-V/propidium iodide staining based flow cytometric method (reference value: 0.090%); type: functional
NCI-H929 [16] = test: Induction of apoptosis in human NCI-H929 cells assessed as necrotic cells at 1.7 uM after 48 hrs by Annexin-V/propidium iodide staining based flow cytometric method (reference value: 0.0034%); type: functional
RPMI-8226 [17] = test: Potentiation of bortezomib-induced cytotoxicity against human RPMI8226 cells assessed as reduction in cell viability at 1.7 uM after 48 hrs in presence of bortezomib by CCK8 assay; type: functional
[18] = Mutagenicity in Salmonella typhimurium TA102 at 500 uM by Ames test; type: toxicity; conditions: salmonella enterica subsp. enterica serovar typhimurium
[19] = Mutagenicity in Salmonella typhimurium TA97 at 500 uM by Ames test; type: toxicity; conditions: salmonella enterica subsp. enterica serovar typhimurium
NCI-H929 [20] = test: Potentiation of bortezomib-induced cytotoxicity against human NCI-H929 cells assessed as reduction in cell viability at 42 nM after 48 hrs in presence of bortezomib by CCK8 assay; type: functional, cell-based
[21] = Hemolytic activity in erythrocytes (unknown origin) at 100 uM after 3 hrs by spectrophotometric analysis; type: ADME, cell-based, Erythrocyte; conditions: read-out: Activity
RPMI-8226 [22] = test: Cytotoxicity against human RPMI8226 cells assessed as reduction in cell viability at […] after 48 hrs by CCK8 assay relative to control; type: functional
RPMI-8226 [23] = test: Cell cycle arrest in human RPMI8226 cells assessed as accumulation at G0/G1 phase at 1.7 uM after 48 hrs by propidium iodide/RNase staining based flow cytometric method; type: functional
NCI-H929 [24] = test: Induction of apoptosis in human NCI-H929 cells assessed as necrotic cells at 1.7 uM after 48 hrs in presence of bortezomib by Annexin-V/propidium iodide staining based flow cytometric method (reference value: 0.0034%); type: functional
RPMI-8226 [25] = test: Induction of apoptosis in human RPMI8226 cells assessed as early apoptotic cells at 1.7 uM after 48 hrs in presence of bortezomib by Annexin-V/propidium iodide staining based flow cytometric method (reference value: 1.05%); type: functional
NCI-H929 [26] = test: Induction of apoptosis in human NCI-H929 cells assessed as early apoptotic cells at 1.7 uM after 48 hrs by Annexin-V/propidium iodide staining based flow cytometric method (reference value: 17.1%); type: functional
RPMI-8226 [27] = test: Cell cycle arrest in human RPMI8226 cells assessed as accumulation at G0/G1 phase at 1.7 uM in presence of bortezomib after 48 hrs by propidium iodide/RNase staining based flow cytometric method relative to bortezomib; type: functional
RPMI-8226 [28] = test: Cell cycle arrest in human RPMI8226 cells assessed as accumulation at S phase at 1.7 uM after 48 hrs by propidium iodide/RNase staining based flow cytometric method; type: functional
Plasma [29] = test: Anticoagulant activity in human platelet poor plasma assessed as prothrombin time at 100 uM incubated for 15 mins at room temperature and subsequent incubation for 2 mins at 37 degreeC followed by PBS addition and measured after 3 mins for every secs in presence of calcium thromboplastin; type: functional
NCI-H929 [30] = test: Induction of apoptosis in human NCI-H929 cells assessed as viable cells at 1.7 uM after 48 hrs by Annexin-V/propidium iodide staining based flow cytometric method (reference value: 82.6%); type: functional; conditions: NCI-H929, 48 h, read-out: Activity

For CC(=O)Oc1ccccc1C(=O)O [ASPIRIN], the APTT (Plasma [1]) was 50.3 s, the Activity [2] was “Non-Toxic” and the viability at 1.7 µM (NCI-H929 [3]) was 45.2%. For the same compound, the Activity [4] was “Non-Toxic”, the Activity (NCI-H929 [5]) was 0.12% and the Activity (RPMI-8226 [6]) was “Active”. For the same compound, the viability at 1.7 µM (RPMI-8226 [7]) was 91.6%, the Activity (NCI-H929 [8]) was 0.072% and the Activity (NCI-H929 [9]) was “inactive”. The IC50 (Platelet) was 1110 nM, the Activity (RPMI-8226 [10]) was “Active” and the Activity (NCI-H929 [11]) was 54.6%. For the same compound, the Activity (RPMI-8226 [12]) was 0.48%, the Activity [13] was “Non-Toxic” and the Activity [14] was “Non-Toxic”. It also gave an Activity (RPMI-8226 [15]) of 0.014%, an Activity (NCI-H929 [16]) of 0.016% and an Activity (RPMI-8226 [17]) of 66%. The Activity [18] was “Non-Toxic”, the Activity [19] was “Non-Toxic” and the Activity (NCI-H929 [20]) was “inactive”. For the same compound, the hemolysis at 3 h, 100 µM [21] was 0%, the Activity (RPMI-8226 [22]) was 7% and the Activity (RPMI-8226 [23]) was “inactive”. It also gave an Activity (NCI-H929 [24]) of 0.026%, an Activity (RPMI-8226 [25]) of 7.95% and an Activity (NCI-H929 [26]) of 16%. The Activity (RPMI-8226 [27]) was “Active”, the Activity (RPMI-8226 [28]) was “inactive” and the PT (Plasma [29]) was 14.6 s. For the same compound, the viability at 1.7 µM (NCI-H929 [30]) was 83.9%.
